Measurements published in PubChem BioAssay (NCI).
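Interpolation was linear, between the two tested concentrations surrounding the appropriate level; five concentrations were tested over 48 hours in 96-well plates. The concentration for 50% growth inhibition is given as GI50. At the TGI there is no net growth.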

Key:
Test in all cases: inhibition of tumour cell growth, NCI panel, 48 h
SK-OV-3 ovarian = tested on: SK-OV-3 ovarian
UACC-62 melanoma = tested on: UACC-62 melanoma
M14 melanoma = tested on: M14 melanoma
HOP-62 NSCLC = tested on: HOP-62 NSCLC
OVCAR-5 ovarian = tested on: OVCAR-5 ovarian
HS 578T breast = tested on: HS 578T breast
EKVX NSCLC = tested on: EKVX NSCLC
NCI-H460 lung = tested on: NCI-H460 lung
HCT-15 colon = tested on: HCT-15 colon
A498 renal = tested on: A498 renal
PC-3 prostate = tested on: PC-3 prostate
BT-549 breast = tested on: BT-549 breast
HCT-116 colon = tested on: HCT-116 colon
NCI/ADR-RES ovarian = tested on: NCI/ADR-RES ovarian
SR leukemia = tested on: SR leukemia
SF-539 CNS = tested on: SF-539 CNS
SF-295 CNS = tested on: SF-295 CNS
MOLT-4 leukemia = tested on: MOLT-4 leukemia
LOX IMVI melanoma = tested on: LOX IMVI melanoma
MDA-MB-435 = tested on: MDA-MB-435
U251 CNS = tested on: U251 CNS
NCI-H226 lung = tested on: NCI-H226 lung
T-47D breast = tested on: T-47D breast
OVCAR-8 ovarian = tested on: OVCAR-8 ovarian
DU-145 prostate = tested on: DU-145 prostate
SK-MEL-28 melanoma = tested on: SK-MEL-28 melanoma
HOP-92 NSCLC = tested on: HOP-92 NSCLC
NCI-H522 lung = tested on: NCI-H522 lung
UO-31 renal = tested on: UO-31 renal
CCRF-CEM leukemia = tested on: CCRF-CEM leukemia
OVCAR-4 ovarian = tested on: OVCAR-4 ovarian
786-0 renal = tested on: 786-0 renal
HT29 colon = tested on: HT29 colon
IGROV1 ovarian = tested on: IGROV1 ovarian
COLO 205 colon = tested on: COLO 205 colon
HCC-2998 colon = tested on: HCC-2998 colon
RXF 393 renal = tested on: RXF 393 renal
UACC-257 melanoma = tested on: UACC-257 melanoma
MCF7 breast = tested on: MCF7 breast
A549 NSCLC = tested on: A549 NSCLC
ACHN renal = tested on: ACHN renal
K-562 leukemia = tested on: K-562 leukemia
SW-620 colon = tested on: SW-620 colon
SK-MEL-5 melanoma = tested on: SK-MEL-5 melanoma
KM12 colon = tested on: KM12 colon
MALME-3M melanoma = tested on: MALME-3M melanoma
CAKI-1 renal = tested on: CAKI-1 renal
NCI-H23 lung = tested on: NCI-H23 lung
SK-MEL-2 melanoma = tested on: SK-MEL-2 melanoma
MDA-MB-468 breast = tested on: MDA-MB-468 breast
SNB-19 CNS = tested on: SNB-19 CNS
SNB-75 CNS = tested on: SNB-75 CNS
HL-60(TB) leukemia = tested on: HL-60(TB) leukemia
TK-10 renal = tested on: TK-10 renal
SN12C renal = tested on: SN12C renal
SF-268 CNS = tested on: SF-268 CNS
OVCAR-3 ovarian = tested on: OVCAR-3 ovarian
MDA-MB-231 breast = tested on: MDA-MB-231 breast
RPMI-8226 leukemia = tested on: RPMI-8226 leukemia

Work on `O=C(N/N=C/c1c[nH]c2ccccc12)Nc1ccccc1Cl` yielded a GI50 (SK-OV-3 ovarian) of 526 nM, a TGI (SK-OV-3 ovarian) of 20200 nM and a GI50 (UACC-62 melanoma) of 148 nM. For the same compound, the TGI (UACC-62 melanoma) was 4700 nM, the GI50 (M14 melanoma) was 111 nM and the TGI (M14 melanoma) was 11900 nM. The GI50 (HOP-62 NSCLC) was 427 nM, the TGI (HOP-62 NSCLC) was 15600 nM and the GI50 (OVCAR-5 ovarian) was 670 nM. The TGI (OVCAR-5 ovarian) was 13100 nM, the GI50 (HS 578T breast) was 285 nM and the TGI (HS 578T breast) was 15000 nM. For the same compound, the GI50 (EKVX NSCLC) was 500 nM, the TGI (EKVX NSCLC) was 13000 nM and the GI50 (NCI-H460 lung) was 336 nM. The TGI (NCI-H460 lung) was 6200 nM, the GI50 (HCT-15 colon) was 65.8 nM and the TGI (HCT-15 colon) was 12000 nM. For the same compound, the GI50 (A498 renal) was 5230 nM, the TGI (A498 renal) was 18500 nM and the GI50 (PC-3 prostate) was 428 nM. For the same compound, the TGI (PC-3 prostate) was 15400 nM, the GI50 (BT-549 breast) was 311 nM and the TGI (BT-549 breast) was 6310 nM. It also gave a GI50 (HCT-116 colon) of 70.9 nM, a TGI (HCT-116 colon) of 3820 nM and a GI50 (NCI/ADR-RES ovarian) of 57.4 nM. It also gave a TGI (NCI/ADR-RES ovarian) of 613 nM, a GI50 (SR leukemia) of 41.1 nM and a TGI (SR leukemia) of 12900 nM. It also gave a GI50 (SF-539 CNS) of 205 nM, a TGI (SF-539 CNS) of 684 nM and a GI50 (SF-295 CNS) of 255 nM. The TGI (SF-295 CNS) was 2520 nM, the GI50 (MOLT-4 leukemia) was 264 nM and the TGI (MOLT-4 leukemia) was 12600 nM. It also gave a GI50 (LOX IMVI melanoma) of 274 nM, a TGI (LOX IMVI melanoma) of 10600 nM and a GI50 (MDA-MB-435) of 27 nM. It also gave a TGI (MDA-MB-435) of 89.1 nM, a GI50 (U251 CNS) of 288 nM and a TGI (U251 CNS) of 11100 nM. The GI50 (NCI-H226 lung) was 1690 nM, the TGI (NCI-H226 lung) was 19600 nM and the GI50 (T-47D breast) was 386 nM. It also gave a TGI (T-47D breast) of 26600 nM, a GI50 (OVCAR-8 ovarian) of 401 nM and a TGI (OVCAR-8 ovarian) of 5760 nM. It also gave a GI50 (DU-145 prostate) of 432 nM, a TGI (DU-145 prostate) of 11400 nM and a GI50 (SK-MEL-28 melanoma) of 2520 nM. It also gave a TGI (SK-MEL-28 melanoma) of 19100 nM, a GI50 (HOP-92 NSCLC) of 869 nM and a TGI (HOP-92 NSCLC) of 8330 nM. The GI50 (NCI-H522 lung) was 42.2 nM, the TGI (NCI-H522 lung) was 328 nM and the GI50 (UO-31 renal) was 471 nM. The TGI (UO-31 renal) was 14900 nM, the GI50 (CCRF-CEM leukemia) was 178 nM and the TGI (CCRF-CEM leukemia) was 10200 nM. It also gave a GI50 (OVCAR-4 ovarian) of 2780 nM, a TGI (OVCAR-4 ovarian) of 29700 nM and a GI50 (786-0 renal) of 493 nM. It also gave a TGI (786-0 renal) of 3740 nM, a GI50 (HT29 colon) of 119 nM and a TGI (HT29 colon) of 986 nM. It also gave a GI50 (IGROV1 ovarian) of 358 nM, a TGI (IGROV1 ovarian) of 12200 nM and a GI50 (COLO 205 colon) of 292 nM. It also gave a TGI (COLO 205 colon) of 1070 nM, a GI50 (HCC-2998 colon) of 608 nM and a TGI (HCC-2998 colon) of 3490 nM. For the same compound, the GI50 (RXF 393 renal) was 292 nM, the TGI (RXF 393 renal) was 2100 nM and the GI50 (UACC-257 melanoma) was 598 nM. It also gave a TGI (UACC-257 melanoma) of 22500 nM, a GI50 (MCF7 breast) of 230 nM and a TGI (MCF7 breast) of 14300 nM. For the same compound, the GI50 (A549 NSCLC) was 577 nM, the TGI (A549 NSCLC) was 13000 nM and the GI50 (ACHN renal) was 665 nM. The TGI (ACHN renal) was 14600 nM, the GI50 (K-562 leukemia) was 39.1 nM and the TGI (K-562 leukemia) was over 33800 nM. The GI50 (SW-620 colon) was 117 nM, the TGI (SW-620 colon) was 16000 nM and the GI50 (SK-MEL-5 melanoma) was 254 nM. The TGI (SK-MEL-5 melanoma) was 1370 nM, the GI50 (KM12 colon) was 172 nM and the TGI (KM12 colon) was 5190 nM. For the same compound, the GI50 (MALME-3M melanoma) was 239 nM, the TGI (MALME-3M melanoma) was 16000 nM and the GI50 (CAKI-1 renal) was 257 nM. For the same compound, the TGI (CAKI-1 renal) was 13800 nM, the GI50 (NCI-H23 lung) was 424 nM and the TGI (NCI-H23 lung) was 6890 nM. It also gave a GI50 (SK-MEL-2 melanoma) of 222 nM, a TGI (SK-MEL-2 melanoma) of 11300 nM and a GI50 (MDA-MB-468 breast) of 217 nM. It also gave a TGI (MDA-MB-468 breast) of 584 nM, a GI50 (SNB-19 CNS) of 590 nM and a TGI (SNB-19 CNS) of 16800 nM. It also gave a GI50 (SNB-75 CNS) of 232 nM, a TGI (SNB-75 CNS) of 2640 nM and a GI50 (HL-60(TB) leukemia) of 102 nM. The TGI (HL-60(TB) leukemia) was 2630 nM, the GI50 (TK-10 renal) was 2410 nM and the TGI (TK-10 renal) was 20600 nM. It also gave a GI50 (SN12C renal) of 433 nM, a TGI (SN12C renal) of 6510 nM and a GI50 (SF-268 CNS) of 844 nM. For the same compound, the TGI (SF-268 CNS) was 15000 nM, the GI50 (OVCAR-3 ovarian) was 96 nM and the TGI (OVCAR-3 ovarian) was 2320 nM. For the same compound, the GI50 (MDA-MB-231 breast) was 508 nM, the TGI (MDA-MB-231 breast) was 4930 nM and the GI50 (RPMI-8226 leukemia) was 345 nM. It also gave a TGI (RPMI-8226 leukemia) of 4760 nM.
